According to ChEMBL document CHEMBL1148091, “Cyclopsychotride A, a biologically active, 31-residue cyclic peptide isolated from Psychotria longipes” (J Nat Prod, 1994):

What was measured:
[1] = Displacement of [125I]NT from neurotensin receptor in human HT-29 cells; assay type: cell-based
HT-29 = assay: Antagonist activity at neurotensin receptor in human HT-29 cells assessed as effect on NT-induced intracellular Ca2+ increase by spectrofluorimetry; assay type: functional, cell-based

Which results are given for CC[C@H](C)[C@@H]1NC(=O)[C@@H]2CCCN2C(=O)[C@H](CS)NC(=O)CNC(=O)[C@H](CCC(=O)O)NC(=O)[C@H](CO)NC(=O)[C@H](CS)NC(=O)[C@H](C(C)C)NC(=O)[C@H](Cc2ccccc2)NC(=O)[C@H]([C@@H](C)CC)NC(=O)[C@@H]2CCCN2C(=O)[C@H](CS)NC(=O)[C@H]([C@H](C)O)NC(=O)[C@H](C(C)C)NC(=O)[C@H]([C@H](C)O)NC(=O)[C@H](C)NC(=O)[C@H](CC(C)C)NC(=O)[C@H](CC(C)C)NC(=O)CNC(=O)[C@H](CS)NC(=O)[C@H](CO)NC(=O)[C@H](CS)NC(=O)[C@H](CCCCN)NC(=O)[C@H](CO)NC(=O)[C@H](CCCCN)NC(=O)[C@H](C(C)C)NC(=O)[C@H](CS)NC(=O)[C@H](Cc2ccc(O)cc2)NC(=O)[C@H](CCCCN)NC(=O)[C@H](CC(N)=O)NC(=O)[C@H](CO)NC1=O [CYCLOPSYCHOTRIDE A]?
IC50 [1]: 3 µM; Activity (HT-29): Dose-dependent effect
